Measured values as given in patent US12391648B2, “Pyridyloxy thioester derivative and preparation method therefor, herbicidal composition, and application” (Qingdao Kingagroot Chemical Compound Co., Ltd., priority 2018, dated 2025).

What was measured:
Assay in all cases: Post-emergence test experiment (Table 3, 1000 g/ha)
Assay type in all cases: in vivo
Conditions in all cases: post-emergence spray, after 3 weeks, fresh weight inhibition
Galium spurium = system: Galium spurium
In short: (§1)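 Weed seeds sown in soil-filled pots in greenhouse, sprayed at 2-3 leaf stage (2 weeks after sowing) with compound in acetone/tween-80 plus methyl oleate emulsible concentrate (1.5 L/ha) diluted in water. Fresh-weight growth inhibition scored after 3 weeks on 0-5 scale (5: >85%, 0: <5%).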

Setaria viridis = system: Setaria viridis
In short: as §1

Monochoria vaginalis = system: Monochoria vaginalis
In short: as §1

Abutilon theophrasti = system: Abutilon theophrasti
In short: as §1

Digitaria sanguinalis = system: Digitaria sanguinalis
In short: as §1

Leptochloa chinensis = system: Leptochloa chinensis
In short: as §1

SMILES	Activity level (growth inhibition rate) Galium spurium (Galium spurium)	Activity level (growth inhibition rate) Setaria viridis (Setaria viridis)	Activity level (growth inhibition rate) Monochoria Vaginalis (Monochoria vaginalis)	Activity level (growth inhibition rate) Abutilon theophrasti (Abutilon theophrasti)	Activity level (growth inhibition rate) Digitaria sanguinalis (Digitaria sanguinalis)	Activity level (growth inhibition rate) Leptochloa chinensis (Leptochloa chinensis)
CC(Oc1nc(F)c(Cl)c(N)c1Cl)C(=O)Sc1cccc(N(C)C)c1 (stereo not drawn) [Compound 109]	5 (Level 5: the growth inhibition rate is greater than 85%)	5 (Level 5: the growth inhibition rate is greater than 85%)	5 (Level 5: the growth inhibition rate is greater than 85%)	5 (Level 5: the growth inhibition rate is greater than 85%)	5 (Level 5: the growth inhibition rate is greater than 85%)	5 (Level 5: the growth inhibition rate is greater than 85%)
CC(Oc1nc(F)c(Cl)c(N)c1Cl)C(=O)Sc1cccc(Cl)c1 (stereo not drawn) [Compound 110]	5 (Level 5: the growth inhibition rate is greater than 85%)	5 (Level 5: the growth inhibition rate is greater than 85%)	5 (Level 5: the growth inhibition rate is greater than 85%)	5 (Level 5: the growth inhibition rate is greater than 85%)	5 (Level 5: the growth inhibition rate is greater than 85%)	5 (Level 5: the growth inhibition rate is greater than 85%)
COc1ccc(SC(=O)C(C)Oc2nc(F)c(Cl)c(N)c2Cl)cc1 (stereo not drawn) [Compound 111]	5 (Level 5: the growth inhibition rate is greater than 85%)	5 (Level 5: the growth inhibition rate is greater than 85%)	5 (Level 5: the growth inhibition rate is greater than 85%)	5 (Level 5: the growth inhibition rate is greater than 85%)	5 (Level 5: the growth inhibition rate is greater than 85%)	5 (Level 5: the growth inhibition rate is greater than 85%)
CC(Oc1nc(F)c(Cl)c(N)c1Cl)C(=O)Sc1ccc(C(F)(F)F)cc1 (stereo not drawn) [Compound 112]	5 (Level 5: the growth inhibition rate is greater than 85%)	5 (Level 5: the growth inhibition rate is greater than 85%)	5 (Level 5: the growth inhibition rate is greater than 85%)	5 (Level 5: the growth inhibition rate is greater than 85%)	5 (Level 5: the growth inhibition rate is greater than 85%)	5 (Level 5: the growth inhibition rate is greater than 85%)
CC(Oc1nc(F)c(Cl)c(N)c1Cl)C(=O)Sc1cccc(C(C)C)c1 (stereo not drawn) [Compound 113]	5 (Level 5: the growth inhibition rate is greater than 85%)	5 (Level 5: the growth inhibition rate is greater than 85%)	5 (Level 5: the growth inhibition rate is greater than 85%)	5 (Level 5: the growth inhibition rate is greater than 85%)	5 (Level 5: the growth inhibition rate is greater than 85%)	5 (Level 5: the growth inhibition rate is greater than 85%)
CC(Oc1nc(F)c(Cl)c(N)c1Cl)C(=O)Sc1ccc2ccccc2c1 (stereo not drawn) [Compound 114]	5 (Level 5: the growth inhibition rate is greater than 85%)	5 (Level 5: the growth inhibition rate is greater than 85%)	5 (Level 5: the growth inhibition rate is greater than 85%)	5 (Level 5: the growth inhibition rate is greater than 85%)	5 (Level 5: the growth inhibition rate is greater than 85%)	5 (Level 5: the growth inhibition rate is greater than 85%)
CC(Oc1nc(F)c(Cl)c(N)c1Cl)C(=O)Sc1cccnc1 (stereo not drawn) [Compound 115]	5 (Level 5: the growth inhibition rate is greater than 85%)	5 (Level 5: the growth inhibition rate is greater than 85%)	5 (Level 5: the growth inhibition rate is greater than 85%)	5 (Level 5: the growth inhibition rate is greater than 85%)	5 (Level 5: the growth inhibition rate is greater than 85%)	5 (Level 5: the growth inhibition rate is greater than 85%)
CC(Oc1nc(F)c(Cl)c(N)c1Cl)C(=O)Sc1ccncc1 (stereo not drawn) [Compound 116]	5 (Level 5: the growth inhibition rate is greater than 85%)	5 (Level 5: the growth inhibition rate is greater than 85%)	5 (Level 5: the growth inhibition rate is greater than 85%)	5 (Level 5: the growth inhibition rate is greater than 85%)	5 (Level 5: the growth inhibition rate is greater than 85%)	5 (Level 5: the growth inhibition rate is greater than 85%)
Cc1cc(SC(=O)C(C)Oc2nc(F)c(Cl)c(N)c2Cl)n(C)n1 (stereo not drawn) [Compound 117]	5 (Level 5: the growth inhibition rate is greater than 85%)	5 (Level 5: the growth inhibition rate is greater than 85%)	5 (Level 5: the growth inhibition rate is greater than 85%)	5 (Level 5: the growth inhibition rate is greater than 85%)	5 (Level 5: the growth inhibition rate is greater than 85%)	5 (Level 5: the growth inhibition rate is greater than 85%)
CC(Oc1nc(F)c(Cl)c(N)c1Cl)C(=O)Sc1ccn(C)n1 (stereo not drawn) [Compound 118]	5 (Level 5: the growth inhibition rate is greater than 85%)	5 (Level 5: the growth inhibition rate is greater than 85%)	5 (Level 5: the growth inhibition rate is greater than 85%)	5 (Level 5: the growth inhibition rate is greater than 85%)	5 (Level 5: the growth inhibition rate is greater than 85%)	5 (Level 5: the growth inhibition rate is greater than 85%)
Cc1cn(C)nc1SC(=O)C(C)Oc1nc(F)c(Cl)c(N)c1Cl (stereo not drawn) [Compound 119]	5 (Level 5: the growth inhibition rate is greater than 85%)	5 (Level 5: the growth inhibition rate is greater than 85%)	5 (Level 5: the growth inhibition rate is greater than 85%)	5 (Level 5: the growth inhibition rate is greater than 85%)	5 (Level 5: the growth inhibition rate is greater than 85%)	5 (Level 5: the growth inhibition rate is greater than 85%)
CC(Oc1nc(F)c(Cl)c(N)c1Cl)C(=O)Sc1ccoc1 (stereo not drawn) [Compound 120]	5 (Level 5: the growth inhibition rate is greater than 85%)	5 (Level 5: the growth inhibition rate is greater than 85%)	5 (Level 5: the growth inhibition rate is greater than 85%)	5 (Level 5: the growth inhibition rate is greater than 85%)	5 (Level 5: the growth inhibition rate is greater than 85%)	5 (Level 5: the growth inhibition rate is greater than 85%)
CC(Oc1nc(F)c(Cl)c(N)c1Cl)C(=O)Sc1cccs1 (stereo not drawn) [Compound 121]	5 (Level 5: the growth inhibition rate is greater than 85%)	5 (Level 5: the growth inhibition rate is greater than 85%)	5 (Level 5: the growth inhibition rate is greater than 85%)	5 (Level 5: the growth inhibition rate is greater than 85%)	5 (Level 5: the growth inhibition rate is greater than 85%)	5 (Level 5: the growth inhibition rate is greater than 85%)
